# In patent publication US9908908B2, “Tenofovir prodrug and pharmaceutical uses thereof” (Jiangsu Hansoh Pharmaceutical Co., Ltd., priority 2012, dated 2018):
# Tests used:
# hepatitis B virus (HBV) = assay: In vitro anti-hepatitis B virus activity (HBV DNA-replication, dot blot); format: cell-based
# Experimental: HepG 2.2.15 cell was used as the hepatitis B virus (HBV) vehicle to determine the inhibition effect of the compounds on DNA-replication of HBV.
# Test method: HepG 2.2.15 cells were seeded into a 96-well culture plate. Various dilutions of test samples and positive control were added, respectively, after 24 hours, in which a cell control well was set. The medium was replaced with culture containing various dilutions of test samples after 72 hours. The supernatants and HepG 2.2.15 cells were collected after 6 days of culture.
# [1] = Cytotoxicity test (CellTiter-Blue); format: cell-based; conditions: human; HepG 2.2.15 cells, 6 days of culture; read-out: Toxicity CC50
# Experimental: (§1) Test method: HepG 2.2.15 cells were seeded into a 96-well culture plate and various dilutions of test samples and positive control were added, respectively. CellTiter-Blue (Promega, Catalog #G8081) was added for 6 days of culture.
# HepG 2.2.15 cells = assay: Cytotoxicity test (CellTiter-Blue); format: cell-based
# Experimental: as §1
# [2] = Stability test in acidic medium (hydrochloric acid solution pH 2.0); format: physicochemical
# Experimental: 4.5 mL of 36% hydrochloric acid was transferred into a 1 L volumetric flask and diluted with water to 1 L to prepare a stock solution. Then 10 mL of the above solution was transferred into a 50 mL volumetric flask and diluted with water to 50 mL to prepare the hydrochloric acid solution with pH 2.0.
# 5.0 mg of GS-7340 were transferred into a 5 mL volumetric flask and mixed with 2.5 mL of isopropyl alcohol to dissolve GS-7340, and then the hydrochloric acid solution (pH 2.0) was added to 5 mL. The solution was shaken well and filtered for using.
# 5.0 mg of compound Ia1 were transferred into a 5 mL volumetric flask and mixed with 2.5 mL of isopropyl alcohol to dissolve compound Ia1, and then the hydrochloric acid solution (pH 2.0) was added to 5 mL. The solution was shaken well and filtered for using.
# (§2) The prepared sample was filled into the chromatography vial as the initial sample and immediately injected. Meanwhile, the rest of the samples were put into a 37° C. incubator, and were injected into the HPLC system after 6 hours.
# [3] = Stability test in simulated gastric juice (pepsin, pH 2.0); format: physicochemical
# Experimental: 10 ml of the stock solution and 500.0 mg of pepsin were transferred into a 50 mL volumetric flask and diluted with water to 50 ml, which was then subjected to ultrasound to dissolve the pepsin (the solution was not clear now) and then filtered to give a clear solution as simulated gastric juice.
# 5.0 mg of GS-7340 were transferred into a 5 mL volumetric flask and mixed with 2.5 mL of isopropyl alcohol to dissolve GS-7340, and then the simulated gastric juice was added to 5 mL. The solution was shaken well and filtered for using.
# 5.0 mg of compound Ia1 were transferred into a 5 mL volumetric flask and mixed with 2.5 mL of isopropyl alcohol to dissolve compound Ia1, and then the simulated gastric juice was added to 5 mL. The solution was shaken well and filtered for using.
# as §2
# [4] = Metabolic stability in fresh human whole blood and distribution test in PBMCs; format: in vitro ADME
# Experimental: Different tenofovir prodrugs were incubated together with fresh human whole blood at 37° C. Plasma and PBMCs were separated, respectively, from the whole blood (Ficoll density gradient centrifugation method) after 1 hour and 2 hours incubation to determine the concentrations of prototype drug and metabolite-tenofovir in plasma and PBMCs. The PBMCs were counted via cell counter and each PBMC was treated as 200 fL to calculate intracellular drug concentration.
# 20 μL of internal standard solution (400 ng/mL SN-38 solution), […], methanol-water (50:50, v/v), and 200 μL acetonitrile were added to 100 μL plasma sample or PBMC sample, respectively. The mixture was mixed by vortex for 1 min and centrifuged for 5 min (14000 rpm). 20 μL supernatant and 180 μl mobile phase were mixed by vortex for 1 min, and 10 μL of the above mixture was injected into LC/MS/MS for analysis.
# HIV-1 (IIIb) = assay: microbe, parasite or virus in culture; format: cell-based
# Experimental: 1) MT-2 cells were infected with HIV-1 (IIIb) to form multiplicity of infection (MOI) 0.01 TCID50 per cell.
# 2) The mixture of virus and cells was incubated in a 384-well plate for 3 days.
# 4) The supernatant was transferred to a new plate and incubated with reporter cells (HeLa) for 24 hours.
# 5) Detecting beta-GAL activity to evaluate anti-HIV activity.
# (§3) 7) The antiviral activity and cytotoxicity were calculated according to the following equation: Antiviral activity (%)=100−(Detection value−Maximum value)/(Minimum value−Maximum value)*100 Cytotoxicity (%)=100−(Detection value−Maximum value)/(Minimum value−Maximum value)*100 8) EC50 and CC50 were calculated with Fit Curve of Graphpad Prism 5 (the results are shown in Table 4).
# [5] = Cytotoxicity in cells free of virus (anti-HIV test); format: cell-based; conditions: human; cells free of virus, 3 days, luminescent signal; read-out: Toxicity CC50
# Experimental: (§4) 3) Cells for the cytotoxic detection were incubated in a 384-well plate for 3 days.
# (§5) 6) Luminescent signal of the cells free of virus was detected to evaluate cytotoxicity after incubation for 3 days.
# as §3
# MT-2 cells = assay: as above; format: cell-based
# Experimental: as §4, §5, §3
# [6] = Acid medium (pH = 2), 37° C., 6 hours
smiles,measurement,setting,value
CC(C)OC(=O)C(C)(C)N[P@](=O)(CO[C@H](C)Cn1cnc2c(N)ncnc21)Oc1ccccc1 [Ia1],inhibitory effect on HBV-DNA replication (in words),hepatitis B virus (HBV); HepG 2.2.15 cells,significant inhibitory effect
same,inhibitory effect on HBV-DNA replication compared with positive control GS7340,hepatitis B virus (HBV); HepG 2.2.15 cells,better than that of the positive control GS7340
same,IC50,"hepatitis B virus (HBV); Hepatitis B virus, HepG2.2.15, 144 h",5 nM
same,CC50 at 6 days,[1],> 10000 nM
same,cytotoxicity (in words),HepG 2.2.15 cells,without cytotoxicity
same,Change value,[2]; [6],0.6%
same,Purity after 6 hours,[2]; [6],98.1%
same,Initial purity,"[2]; Acid medium (pH = 2), initial sample",98.7%
same,stability compared to GS-7340 (in words),[2]; acid medium and simulated gastric juice,significantly improved
same,Change value,"[3]; 37° C., 6 hours",0.5%
same,Purity after 6 hours,"[3]; 37° C., 6 hours",98.2%
same,Initial purity,[3]; initial sample,98.7%
same,Prototype concentration,"[4]; 0 hour, initial concentration, fresh human whole blood",12.4 µM
same,Prototype concentration,"[4]; 1 hour incubation at 37° C., in PBMCs",1528 µM
same,Prototype concentration,"[4]; 1 hour incubation at 37° C., in plasma",12.3 µM
same,change of active metabolite-tenofovir concentration in PBMCs over the incubation time (in words),[4]; 1 hour to 2 hours,increased significantly
same,Prototype concentration,"[4]; 2 hour incubation at 37° C., in PBMCs",1282 µM
same,Prototype concentration,"[4]; 2 hour incubation at 37° C., in plasma",12.2 µM
same,concentration of active metabolite-tenofovir in PBMCs relative to GS-7340,[4]; after incubation for 2 hours,about three times
same,active metabolite-tenofovir detected in plasma (in words),[4]; after incubation with fresh human whole blood,no active metabolite-tenofovir was detected
same,stability in plasma (in words),"[4]; fresh human whole blood, compared with GS-7340",significantly better than the positive control GS-7340
same,inhibitory effect on HIV virus (in words),HIV-1 (IIIb),strong inhibitory effect
same,EC50,"HIV-1 (IIIb); Human immunodeficiency virus 1, IIIB, MT2, 72 h",8 nM
same,CC50 at 3 days,[5],> 150000 nM
same,cytotoxicity (in words),MT-2 cells,no cytotoxicity
